According to patent publication US20230089368A1, “POLYAROMATIC UREA DERIVATIVES AND THEIR USE IN THE TREATMENT OF MUSCLE DISEASES” (ANAGENESIS BIOTECHNOLOGIES S.A.S., priority 2019, published 2023):

Assays:
[1] = system: muscle progenitors (hMP) from DMD hiPSC or WT hiPSC; assay: Myotube assay: myogenic activity (total myotube area per well); format: cell-based, human; conditions: Homo sapiens, 72 h, myotube assay, compounds incubated 3 days; for Emax: read-out: MA (normalized Myotube Area, efficacy); for EC50: 10 points dose-response 1.5 nM to 30 μM, read-out: EC50 (myogenic activity, half-maximal generation of myotubes)
Method: An in vitro assay for assessing the efficacy of compounds for use in treating, ameliorating, delaying, curing and/or preventing a disease or condition associated with muscle cells and/or satellite cells is described in example 78. Herein, the generation of myotubes and satellite cells after adding a compound to a myotube assay workflow is assessed. Said myotube assay workflow is derived from wild-type or DMD human induced pluripotent stem cells (WT hiPSC or DMD hiPSC). Before the addition of said compound, the assay comprises satellite-like cells, but no significant amount of myotubes.
(§1) The efficacy of said compound for use in treating, ameliorating, delaying, curing and/or preventing a disease or condition associated with muscle cells and/or satellite cells is positively correlated with the generation of myotubes (i.e. the increase of the area occupied by myotubes on the assay) and/or satellite cells (i.e. the increase of the number of satellite cells) in the assay after adding said compound. The generation of myotubes by the addition of said compound is expressed as the EC50 value, the concentration of said compound that corresponds with the half-maximal generation of myotubes, and the MA (normalized myotube area) value, the normalized area occupied by generated myotubes on the assay. […] Since muscle cells are formed from myotubes during myogenesis, the generation of myotubes in the assay is a good indicator of the ability of said compound to induce the formation of functional muscle cells in vivo. The number of satellite cells is measured as the percentage of Pax7 positive cells, relative to the total number of cells in the assay, as shown in FIG. 3. The percentage of Pax7 is a good indicator of the ability of said compound to induce the formation of satellite cells which are able to play a role in muscle repair and regeneration in vivo.
(§2) DMD human induced pluripotent stem cells (hereafter “DMD hiPSC”), generated from the NORM-1 hiPSC WT cell line by gene editing, or WT human induced pluripotent stem cells (hereafter “WT hiPSC”), being NORM-1 hiPSC wt cell line, have been differentiated according to Chal et al. 2015, 2016, to produce muscle progenitors (hereafter “hMP”). The hMP population contains satellite-like cells (i.e Pax7-positive cells) and satellite cells' progenies (i.e. Myogenin-positive cells).
(§3) FIG. 1 provides an example of a Myotube assay workflow. At day 0, hMP are thawed and 3.1 million cells are plated into a T75-flask coated with hESC-qualified Matrigel™ (Corning) in SkGM proliferating medium (PromoCells), supplemented with 5 μM Y-27632 (Tocris Bioscience). On day 2, SkGM proliferating medium is refreshed. On day 4, hMP are harvested and transferred into a 384-well plate coated with collagen type I at a density of 3500 cells/well in a DMEM-based medium, containing 5% of knockout serum replacement (Gibco), 1% PenStrep (Gibco), 1% MEM NEAA (Gibco) and 0.1 mM 2-mercaptoethanol (Gibco) (hereafter “K5 medium”) and 5 μM Y-27632. Compounds to be tested are then added in the medium and incubated for 3 days at 37° C. On day 7, cells are fixed and immunostained. For example, myotubes (alpha-actinin staining) and satellite-like (Pax7 staining) cells can be analyzed for total myotube area per well or Pax7-positive cell quantification.
(§4) DMD hMP were put in the Myotube assay according to the workflow described in Example 2.1. In particular, compound (i) was added at concentrations ranging from 1.5 nM to 30 μM, starting from day 4. hMP were cultivated for three more days in presence of compound (i), then fixed and analyzed for quantification of total myotube area per well. Duplicates of each condition were averaged.
Qualitative scale: ++++: EC50<500 nM; +++: 500 nM≤EC50<1000 nM; ++: 1000 nM≤EC50<5000 nM; +: EC50≥5000 nM; +++: MA≥75%; ++: 50%≤MA<75%; +: 25%≤MA<50%.

[2] = system: satellite-like cells (Pax7-positive cells) in hMP; assay: Myotube assay: Pax7-positive (satellite-like) cell quantification; format: cell-based, human; parameters: key to Pax7% (pool of Pax7-positive cells) / Pax7: −: Depletes the pool of cells, while positively affects the myotubes; +: Maintains or increases the pool of cells, with at least 1 of the highest concentration known to be cytotoxic; ++: Maintains or increases the pool of cells, without any toxicity; conditions: myotube assay, compounds incubated 3 days
Text: as §1, §2, §3
as §4, with “percentage” for “quantification”, “Pax7-positive cells and nuclei number.” for “total myotube area per well.”
(−): Depletes the pool of cells, while positively affects the myotubes; (+): Maintains or increases the pool of cells, with at least 1 of the highest concentration known to be cytotoxic; and (++) Maintains or increases the pool of cells, without any toxicity.

EC50 [1] [nM]	SMILES	Emax [1] [%]	Pax7% (pool of Pax7-positive cells) [2]
–	Cc1cc(NC(=O)Nc2ccc(Oc3ccnc4[nH]c(=O)cnc34)cc2F)n(-c2ccccc2)n1 [(a), 1-(2-fluoro-4-((3-oxo-3,4-dihydropyrido[2,3-b]pyrazin-8-yl)oxy)phenyl)-3-(3-methyl-1-phenyl-1H-pyrazol-5-yl)urea]	25 to 50	++
1000 to 5000	CNC(=O)c1cc(Oc2cccc(NC(=O)Nc3cc(C(C)(C)C)nn3-c3ccccc3)c2)ccn1 [(aa), 4-(3-(3-(3-(tert-butyl)-1-phenyl-1H-pyrazol-5-yl)ureido)phenoxy)-N-methylpicolinamide]	50 to 75	++
–	CNC(=O)c1ccc(Oc2cccc(NC(=O)Nc3cc(C(C)(C)C)nn3-c3ccccc3)c2)cn1 [(ab), 5-(3-(3-(3-(tert-butyl)-1-phenyl-1H-pyrazol-5-yl)ureido)phenoxy)-N-methylpicolinamide]	50 to 75	++
–	CC(C)(C)c1cc(NC(=O)Nc2ccc(Oc3ccccc3)cc2F)n(-c2ccccc2)n1 [(ac), 1-(3-(tert-butyl)-1-phenyl-1H-pyrazol-5-yl)-3-(2-fluoro-4-phenoxyphenyl)urea]	50 to 75	++
–	CC(C)(C)c1cc(NC(=O)Nc2ccc(Oc3ccncc3)cc2F)n(-c2ccccc2)n1 [(ad), 1-(3-(tert-butyl)-1-phenyl-1H-pyrazol-5-yl)-3-(2-fluoro-4-(pyridin-4-yloxy)phenyl)urea]	25 to 50	++
–	CC(=O)Nc1cc(Oc2ccc(NC(=O)Nc3cc(C(C)(C)C)nn3-c3ccccc3)c(F)c2)ccn1 [(ae), N-(4-(4-(3-(3-(tert-butyl)-1-phenyl-1H-pyrazol-5-yl)ureido)-3-fluorophenoxy)pyridin-2-yl)acetamide]	50 to 75	+
–	CC(C)(C)c1cc(NC(=O)Nc2ccc(Oc3ccc(F)cc3)cc2F)n(-c2ccccc2)n1 [(af), 1-(3-(tert-butyl)-1-phenyl-1H-pyrazol-5-yl)-3-(2-fluoro-4-(4-fluorophenoxy)phenyl)urea]	25 to 50	++
–	CNC(=O)c1cc(Oc2ccc(NC(=O)Nc3cc(C(C)(C)C)nn3-c3ccc4ncccc4c3)c(SC)c2)ccn1 [(ag), 4-(4-(3-(3-(tert-butyl)-1-(quinolin-6-yl)-1H-pyrazol-5-yl)ureido)-3-(methylthio)phenoxy)-N-methylpicolinamide]	≥ 75	++
–	CSc1cc(Oc2ccnc3[nH]c(=O)cnc23)ccc1NC(=O)Nc1ncc(C(C)(C)C)s1 [(ah), 1-(5-(tert-butyl)thiazol-2-yl)-3-(2-(methylthio)-4-((3-oxo-3,4-dihydropyrido[2,3-b]pyrazin-8-yl)oxy)phenyl)urea]	≥ 75	++
–	CNC(=O)c1cncc(Oc2ccc(NC(=O)Nc3cc(C(C)(C)C)nn3-c3ccccc3)c(SC)c2)c1 [(ai), 5-(4-(3-(3-(tert-butyl)-1-phenyl-1H-pyrazol-5-yl)ureido)-3-(methylthio)phenoxy)-N-methylnicotinamide]	50 to 75	++
500 to 1000	COc1ccc(-n2nc(C(C)(C)C)cc2NC(=O)Nc2ccc(Oc3ccnc4[nH]c(=O)cnc34)cc2SC)cc1 [(aj), 1-(3-(tert-butyl)-1-(4-methoxyphenyl)-1H-pyrazol-5-yl)-3-(2-(methylthio)-4-((3-oxo-3,4-dihydropyrido[2,3-b]pyrazin-8-yl)oxy)phenyl)urea]	≥ 75	++
–	CC(C)(C)c1cc(NC(=O)Nc2ccc(Oc3ccnc4[nH]c(=O)cnc34)cc2Cl)n(-c2ccccc2)n1 [(ak), 1-(3-(tert-butyl)-1-phenyl-1H-pyrazol-5-yl)-3-(2-chloro-4-((3-oxo-3,4-dihydropyrido[2,3-b]pyrazin-8-yl)oxy)phenyl)urea]	≥ 75	+
–	Cc1cc(Oc2ccnc3[nH]c(=O)cnc23)ccc1NC(=O)Nc1cc(C(C)(C)C)nn1-c1ccccc1 [(al), 1-(3-(tert-butyl)-1-phenyl-1H-pyrazol-5-yl)-3-(2-methyl-4-((3-oxo-3,4-dihydropyrido[2,3-b]pyrazin-8-yl)oxy)phenyl)urea]	≥ 75	++
–	CCSc1cc(Oc2ccnc3[nH]c(=O)cnc23)ccc1NC(=O)Nc1cc(C(C)(C)C)nn1-c1ccccc1 [(am), 1-(3-(tert-butyl)-1-phenyl-1H-pyrazol-5-yl)-3-(2-(ethylthio)-4-((3-oxo-3,4-dihydropyrido[2,3-b]pyrazin-8-yl)oxy)phenyl)urea]	≥ 75	++
–	CSc1cc(Oc2ccnc3c2CCC(=O)N3)ccc1NC(=O)Nc1cc(C(C)(C)C)nn1-c1ccccc1 [(an), 1-(3-(tert-butyl)-1-phenyl-1H-pyrazol-5-yl)-3-(2-(methylthio)-4-((7-oxo-5,6,7,8-tetrahydro-1,8-naphthyridin-4-yl)oxy)phenyl)urea]	≥ 75	++
–	CSc1cc(Oc2ccnc3[nH]c(=O)cnc23)ccc1NC(=O)Nc1cc(C(C)(C)C)nn1-c1ccc(Cl)cc1 [(ao), 1-(3-(tert-butyl)-1-(4-chlorophenyl)-1H-pyrazol-5-yl)-3-(2-(methylthio)-4-((3-oxo-3,4-dihydropyrido[2,3-b]pyrazin-8-yl)oxy)phenyl)urea]	≥ 75	++
–	CNC(=O)c1ccc(Oc2ccc(NC(=O)Nc3cc(C(C)(C)C)nn3-c3ccccc3)c(SC)c2)cn1 [(ap), 5-(4-(3-(3-(tert-butyl)-1-phenyl-1H-pyrazol-5-yl)ureido)-3-(methylthio)phenoxy)-N-methylpicolinamide]	25 to 50	++
–	CSc1cc(Oc2ccnc(NC(C)=O)c2)ccc1NC(=O)Nc1cc(C(C)(C)C)nn1-c1ccccc1 [(aq), N-(4-(4-(3-(3-(tert-butyl)-1-phenyl-1H-pyrazol-5-yl)ureido)-3-(methylthio)phenoxy)pyridin-2-yl)acetamide]	≥ 75	+
–	CSc1cc(Oc2ccnc3[nH]c(=O)cnc23)ccc1NC(=O)Nc1cc(C(C)(C)C)nn1-c1ccccn1 [(ar), 1-(3-(tert-butyl)-1-(pyridin-2-yl)-1H-pyrazol-5-yl)-3-(2-(methylthio)-4-((3-oxo-3,4-dihydropyrido[2,3-b]pyrazin-8-yl)oxy)phenyl)urea]	≥ 75	++
–	CSc1cc(Oc2ccnc3[nH]c(=O)cnc23)ccc1NC(=O)Nc1cc(C(C)(C)C)nn1-c1cccc(Cl)c1 [(as), 1-(3-(tert-butyl)-1-(3-chlorophenyl)-1H-pyrazol-5-yl)-3-(2-(methylthio)-4-((3-oxo-3,4-dihydropyrido[2,3-b]pyrazin-8-yl)oxy)phenyl)urea]	≥ 75	+
